These results are taken from patent US10549237B2, “Regenerable draw solute for osmotically driven processes” (NANYANG TECHNOLOGICAL UNIVERSITY, priority 2015, dated 2020).

Data set [1] can be described thus: Water flux during forward osmosis in a cross-flow setup (Example 3, FIG. 2). As to conditions: 40 wt % draw solution. The method, then:
Water flux during FO was measured in a cross-flow setup by monitoring the feed solution weight decrease with time. The method is adapted from a reported standard procedure. The initial weight of feed solution and draw solution was 500 g and 200 g, respectively. The effective membrane area was 58.5 cm^2. The feed and draw solutions flew in co-current in order to reduce the tension stress on membrane. The flow rate was 400 ml/min and plastic spacers were used in both feed and draw sides to reduce concentration polarization. During the tests, the temperature in draw solution and feed solution were monitored to be 50±1° C. and 46±2° C. respectively. The concentrations of feed solution and draw solution were kept virtually constant during the measurement. Water flux measurements were conducted in both FO mode (selective membrane layer facing towards feed solution) and PRO mode (selective layer facing towards draw solution). The water flux was calculated by: Flux=Δm/(A*t) (1)
Where Δm is the value of feed solution weight decrease (kg), t is the corresponding measurement time (h) and A is the membrane area in square meters. Therefore, the flux is in unit of liter per square meter per hour (LMH) if the density of water is assumed to be 1 kg/L.

Data set [2] is described as follows: Residual Na2HPO4 concentration after acetone extractive crystallization of the supernatant (Example 2). As to conditions: acetone added to 10 wt % supernatant; lowest value, depends on amount of solvent. Format: physicochemical. The method, then: […]. There is an instantaneous phase separation resulting in precipitation of solid crystal hydrates upon acetone addition. The mixture was allowed to settle for 1 hour before the solid crystals are removed. […] The Na2HPO4 concentration in water/acetone mixtures were then calculated accordingly. All the measurements were repeated for three times.

Regarding Disodium phosphate, the water flux in data set [1] (feed 3.5 wt % NaCl (artificial seawater), FO mode, draw 50±1° C., feed 46±2° C.) is on record as 8 LMH; in data set [1] (feed 3.5 wt % NaCl (artificial seawater), PRO mode, draw 50±1° C., feed 46±2° C.), 19 LMH; in data set [1] (feed 17 wt % NaCl) it was “about 1.0 LMH”. Further, in data set [2], the “residual Na2HPO4 concentration after extractive crystallization” value came out at 0.28 wt %.
